According to ChEMBL document CHEMBL1141278, “Naamidines H and I, cytotoxic imidazole alkaloids from the Indonesian marine sponge Leucetta chagosensis” (J Nat Prod, 2007):
Converted amounts (≈) assume the structure as drawn. The source made the active and inactive calls. The calls are words filed in the database; no cut-off is given here.

Columns and labels:
[1] = test system: HeLa; experiment: Cytotoxicity against human HeLa cells by MTT assay; format: functional, cell-based
[2] = test system: Escherichia coli; experiment: Antimicrobial activity against Escherichia coli at 50 ug/6 mm disk by paper disk method; format: functional, organism-based

SMILES	IC50 [1]	Activity [2]
COc1ccc(Cc2[nH]/c(=N\C3=NC(=O)N(C)C3=O)n(C)c2Cc2cc(OC)c(O)c(OC)c2)cc1 [NAAMIDINE H]	5.6 µg/mL (≈ 11.3 µM)	inactive
C/N=C1N=C(/N=c2\[nH]c(Cc3ccc(OC)cc3)c(Cc3cc(OC)c(O)c(OC)c3)n2C)C(=O)N\1C [NAAMIDINE I]	15 µg/mL (≈ 29.6 µM)	inactive
